Several values for one entry are separate records, joined by “and”; a condition that tells them apart may be missing. Equal entries are not always repeated. Inconclusive results and toxic doses are left out.

For 19 compounds, T/C results are on record in PubChem BioAssay AID330 (DTP/NCI, 2004).

In this test the test system is P388 leukemia ip, CD2F1 mice, survival T/C. Put plainly: NCI In Vivo Anticancer Drug Screen. Data for tumor model P388 Leukemia (intraperitoneal) in CD2F1 (CDF1) mice. The conditions noted are these: endpoint: median survival time, higher = longer survival. Summed up: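 Mice carrying the transplanted tumor received test compound or vehicle. Survival was recorded in each group, and the value is the treated-group measurement divided by that of the vehicle-treated control group.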

The mark [1] stands for this setting: dose: 50.0 mg/kg/injection, schedule: Q01DX009 (ip), vehicle: saline.
[2] abbreviates: dose: 100.0 mg/kg/injection, schedule: Q01DX009 (ip), vehicle: saline.
The mark [3] stands for this setting: dose: 200.0 mg/kg/injection, schedule: Q01DX009 (ip), vehicle: saline.
[4] abbreviates: dose: 25.0 mg/kg/injection, schedule: Q01DX009 (ip), vehicle: Klucel (hydroxypropylcellulose) (HPC).
Setting [5] is: dose: 100.0 mg/kg/injection, schedule: Q01DX009 (ip), vehicle: Klucel (hydroxypropylcellulose) (HPC).
[6] abbreviates: dose: 25.0 mg/kg/injection, schedule: Q01DX005 (ip), vehicle: saline with Tween-80.
Setting [7] is: dose: 50.0 mg/kg/injection, schedule: Q01DX009 (ip), vehicle: Klucel (hydroxypropylcellulose) (HPC).
The mark [8] stands for this setting: dose: 25.0 mg/kg/injection, schedule: Q01DX009 (ip), vehicle: saline with Tween-80.
The mark [9] stands for this setting: dose: 50.0 mg/kg/injection, schedule: Q01DX009 (ip), vehicle: saline with Tween-80.
[10] abbreviates: dose: 100.0 mg/kg/injection, schedule: Q01DX009 (ip), vehicle: saline with Tween-80.
Where [11] appears, read: dose: 200.0 mg/kg/injection, schedule: Q01DX009 (ip), vehicle: saline with Tween-80.

Regarding `CCC(C)(O)P(=O)(O)O` (stereo not drawn), the T/C was 98 % of control under setting [1], 98 % of control under setting [2] and 95 % of control under setting [3].

For `CCC(O)C(O)(c1ccccc1)c1nc2ccccc2s1` (stereo not drawn), the T/C (dose: 50.0 mg/kg/injection, schedule: Q01DX005 (ip), vehicle: Klucel (hydroxypropylcellulose) (HPC)) is 102 % of control; the T/C (dose: 100.0 mg/kg/injection, schedule: Q01DX005 (ip), vehicle: Klucel (hydroxypropylcellulose) (HPC)) is 102 % of control; the T/C (dose: 200.0 mg/kg/injection, schedule: Q01DX005 (ip), vehicle: Klucel (hydroxypropylcellulose) (HPC)) is 99 % of control.

`Cc1cc(C)c(CCl)c(C)c1CCl`: the T/C under setting [4] was 106 % of control and the T/C under setting [5] was 100 % of control.

In the case of `C/C=C/C1CC2CC(CC(O)CC)CN2O1` (stereo not drawn), the T/C reads like this: under setting [6], 108 % of control; (dose: 50.0 mg/kg/injection, schedule: Q01DX005 (ip), vehicle: saline with Tween-80) 100 % of control; (dose: 100.0 mg/kg/injection, schedule: Q01DX005 (ip), vehicle: saline with Tween-80) 110 % of control.

`C1CC2OCC1O2` (stereo not drawn): the T/C under setting [1] is 100 % of control, the T/C under setting [2] is 106 % of control and the T/C under setting [3] is 100 % of control.

Regarding `COC(=O)c1n[nH]nc1CC(N)=O`, the T/C (dose: 50.0 mg/kg/injection, schedule: Q01DX005 (ip), vehicle: saline) was 105 % of control; the T/C (dose: 100.0 mg/kg/injection, schedule: Q01DX005 (ip), vehicle: saline) is 105 % of control; the T/C (dose: 200.0 mg/kg/injection, schedule: Q01DX005 (ip), vehicle: saline) is 103 % of control.

In the case of `c1cc2c(cc1CN1CCOCC1)CCc1cc(CN3CCOCC3)ccc1N2`, the T/C reads like this: (dose: 15.0 mg/kg/injection, schedule: Q01DX005 (ip), vehicle: Klucel (hydroxypropylcellulose) (HPC)) 101 % of control; (dose: 30.0 mg/kg/injection, schedule: Q01DX005 (ip), vehicle: Klucel (hydroxypropylcellulose) (HPC)) 100 % of control; (dose: 60.0 mg/kg/injection, schedule: Q01DX005 (ip), vehicle: Klucel (hydroxypropylcellulose) (HPC)) 94 % of control and 95 % of control.

On to `CCCCn1c(C)nc2c(N)cc(C(F)(F)F)cc21`, for which the T/C was 100 % of control and 92 % of control (dose: 3.12 mg/kg/injection, schedule: Q01DX009 (ip), vehicle: Klucel (hydroxypropylcellulose) (HPC)); 105 % of control and 87 % of control (dose: 6.25 mg/kg/injection, schedule: Q01DX009 (ip), vehicle: Klucel (hydroxypropylcellulose) (HPC)); 121 % of control and 97 % of control (dose: 12.5 mg/kg/injection, schedule: Q01DX009 (ip), vehicle: Klucel (hydroxypropylcellulose) (HPC)); 111 % of control (dose: 25.0 mg/kg/injection, schedule: Q01DX001 (ip), vehicle: Klucel (hydroxypropylcellulose) (HPC)); 107 % of control and 89 % of control and 93 % of control under setting [4]; 115 % of control (dose: 50.0 mg/kg/injection, schedule: Q01DX001 (ip), vehicle: Klucel (hydroxypropylcellulose) (HPC)). The T/C reads like this: under setting [7], 101 % of control; (dose: 100.0 mg/kg/injection, schedule: Q01DX001 (ip), vehicle: Klucel (hydroxypropylcellulose) (HPC)) 115 % of control; under setting [5], 105 % of control; (dose: 200.0 mg/kg/injection, schedule: Q01DX001 (ip), vehicle: Klucel (hydroxypropylcellulose) (HPC)) 114 % of control; (dose: 400.0 mg/kg/injection, schedule: Q01DX001 (ip), vehicle: Klucel (hydroxypropylcellulose) (HPC)) 118 % of control.

As for `COC1/C=C/OC2(C)Oc3c(C)c(O)c4c(O)c(c(/C=N/NC5C6CC7CC(C6)CC5C7)c(O)c4c3C2=O)NC(=O)/C(C)=C/C=C/C(C)C(O)C(C)C(O)C(C)C(OC(C)=O)C1C` (stereo not drawn), the T/C is, setting by setting: (dose: 12.5 mg/kg/injection, schedule: Q01DX009 (ip), vehicle: saline with Tween-80) 106 % of control; under setting [8], 109 % of control; under setting [9], 113 % of control and 95 % of control.

`COc1cc([N+](=O)[O-])cc2c1OC1(SC(C)(C)C(C)CN1C)C(C)=C2` (stereo not drawn): the T/C is, setting by setting: (dose: 100.0 mg/kg/injection, schedule: Q04DX003 (ip), vehicle: saline with Tween-80) 105 % of control; (dose: 200.0 mg/kg/injection, schedule: Q04DX003 (ip), vehicle: saline with Tween-80) 100 % of control; (dose: 400.0 mg/kg/injection, schedule: Q04DX003 (ip), vehicle: saline with Tween-80) 95 % of control.

Turning to `COc1ccc2c(c1)[C@]13CCN(C)[C@H](C2)[C@@H]1CCC1(C3)OCCO1`, the T/C was 104 % of control (dose: 100.0 mg/kg/injection, schedule: Q01DX001 (ip), vehicle: saline with Tween-80) and 106 % of control (dose: 200.0 mg/kg/injection, schedule: Q01DX001 (ip), vehicle: saline with Tween-80).

Consider `COC(CN1C(=O)CSC1=S)OC`, for which the T/C by setting is: under setting [9], 114 % of control; under setting [10], 117 % of control; under setting [11], 117 % of control.

In the case of `NC(=O)C(=O)c1cc(Cl)c(Cl)c(Cl)c1Cl`, the T/C was 105 % of control under setting [8], 99 % of control under setting [9] and 96 % of control under setting [10].

For `OCC1OC(n2cnc3c(=S)nc[nH]c32)C(O)C1O` (stereo not drawn), the T/C is, setting by setting: (dose: 25.0 mg/kg/injection, schedule: Q01DX009 (ip), vehicle: saline sonified) 95 % of control; (dose: 50.0 mg/kg/injection, schedule: Q01DX009 (ip), vehicle: saline sonified) 100 % of control; (dose: 100.0 mg/kg/injection, schedule: Q01DX009 (ip), vehicle: saline sonified) 100 % of control; under setting [10], 100 % of control; under setting [11], 100 % of control; (dose: 400.0 mg/kg/injection, schedule: Q01DX009 (ip), vehicle: saline with Tween-80) 95 % of control. Further, the T/C (dose: 800.0 mg/kg/injection, schedule: Q01DX009 (ip), vehicle: saline with Tween-80) is 109 % of control.

Turning to `C=C[C@H]1[C@H](OC2OC(CO)C(O)C(O)C2O)OC=C2C(=O)N3CCS[C@H]3C[C@H]21` (stereo partly drawn), the T/C (dose: 9.38 mg/kg/injection, schedule: Q01DX005 (ip), vehicle: Klucel (hydroxypropylcellulose) (HPC)) was 97 % of control; the T/C (dose: 18.75 mg/kg/injection, schedule: Q01DX005 (ip), vehicle: Klucel (hydroxypropylcellulose) (HPC)) is 98 % of control; the T/C (dose: 37.5 mg/kg/injection, schedule: Q01DX005 (ip), vehicle: Klucel (hydroxypropylcellulose) (HPC)) is 107 % of control; the T/C (dose: 75.0 mg/kg/injection, schedule: Q01DX005 (ip), vehicle: Klucel (hydroxypropylcellulose) (HPC)) was 95 % of control; the T/C (dose: 150.0 mg/kg/injection, schedule: Q01DX005 (ip), vehicle: Klucel (hydroxypropylcellulose) (HPC)) is 98 % of control.

In the case of `N=C(N)c1ccc(Nc2ccc(-c3cc4ccc(C(=N)N)cc4[nH]3)cc2)cc1`, the T/C reads like this: (dose: 1.87 mg/kg/injection, schedule: Q01DX005 (ip), vehicle: Klucel (hydroxypropylcellulose) (HPC)) 174 % of control; (dose: 7.5 mg/kg/injection, schedule: Q01DX005 (ip), vehicle: Klucel (hydroxypropylcellulose) (HPC)) 166 % of control and 194 % of control.

Consider `O=c1ssc(=Nc2ccccc2)n1-c1ccccc1`, for which the T/C reads like this: under setting [7], 109 % of control; under setting [5], 116 % of control and 118 % of control; (dose: 200.0 mg/kg/injection, schedule: Q01DX009 (ip), vehicle: Klucel (hydroxypropylcellulose) (HPC)) 113 % of control and 117 % of control; (dose: 400.0 mg/kg/injection, schedule: Q01DX009 (ip), vehicle: Klucel (hydroxypropylcellulose) (HPC)) 124 % of control.

For `CN=C(NC)c1ccc(NC(=O)Nc2cccc(NC(=O)Nc3ccc(C(=NC)NC)cc3)c2)cc1`, the T/C is 160 % of control and 177 % of control (dose: 12.5 mg/kg/injection, schedule: Q01DX005 (ip), vehicle: saline with Tween-80); 195 % of control and 206 % of control under setting [6].

`COC(=O)C1CC(C(=O)OC)C2C(C(=O)OC)CC(C(=O)OC)C12` (stereo not drawn): the T/C is 99 % of control (dose: 60.0 mg/kg/injection, schedule: Q01DX005 (ip), vehicle: saline with Tween-80); 96 % of control (dose: 120.0 mg/kg/injection, schedule: Q01DX005 (ip), vehicle: saline with Tween-80); 99 % of control (dose: 240.0 mg/kg/injection, schedule: Q01DX005 (ip), vehicle: saline with Tween-80).
